According to publication PMC10790361, “Membrane Partitioning of TEMPO Discriminates Human Lung Cancer from Neighboring Normal Cells” (Acta Naturae, 2023):

Tests used:
[1] = system: membranes of human lung carcinoma (cancer) cells; assay: EPR study of TEMPO partitioning into membranes of human lung carcinoma cells; format: physicochemical; conditions: for 2Aiso aqueous: TEMPO in aqueous phase
Protocol: (§1) The fresh lung tissue (about 2-3 h after the surgery) was washed thoroughly with PBS buffer to remove blood. Afterward, the tissue was cut into small pieces and then homogenized in PBS buffer using a glass homogenizer. The homogenized lung tissue was washed three times with PBS solution and then centrifuged (Eppendorf 5418) to remove the cell debris. Obtained cell suspension was used for the experiments. The intactness of the cells was assessed by Zeta-potential measurements as shown previously.
(§2) EPR measurements were performed using a Bruker ELEXSYS E580 spectrometer at X-band frequency with variable temperature accessory. The aqueous suspension of lung carcinoma and neighboring normal cells with TEMPO were placed into Pyrex capillary tubes with an I.D. of 0.6 mm. EPR spectra were recorded with the following instrument parameters: scan width: 100 Gauss; sweep time: 40 s; modulation amplitude: 1 Gauss; modulation frequency: 100 kHz; microwave power: 0.47 mW; and time constant: 0.1 s. Before the measurements, the samples were kept for 5 minutes at each temperature to ensure that the sample temperature matched the set temperatures.
(§3) The difference in the nitrogen splitting constant of TEMPO in hydrophobic (cell membrane) and hydrophilic (aqueous) environments is the reason for the split of the third component. Consequently, the EPR spectra of TEMPO incubated with cells in an aqueous environment reflect the partitioning of TEMPO in the lipid fraction of the cell membrane and aqueous environments. To resolve the spectral components, the EPR spectra of TEMPO were analyzed using the LabVIEW program developed by Christian Altenbach (https://sites.google.com/site/altenbach/), using the spectral simulation code written in FORTRAN [34]. Along with computer simulations, rotational correlation times of TEMPO were also calculated using the following formula that uses the peak heights and line widths of the first derivative EPR spectra:
(§4) where W0 is the width (in Gauss) of the central component, while h0 and h-1 are the heights of the central and high-magnetic field components of the first derivative EPR spectrum. As mentioned above, the EPR spectra resulting from the partitioning of TEMPO in the system are composite and consist of two components. Therefore, the formula above was applied after the decomposition of the EPR spectra into lipophilic and hydrophilic components. Because of the close similarity of the correlation times obtained from the software and the formula, data are shown only as deduced from the software.
(§5) Double integrals of the EPR spectral components (Imbrand Iaqrepresent TEMPO confined in the membrane and aqueous environments, respectively) were employed to calculate partition coefficients with the following formula: K = Imbr/(Imbr+ Iaq). To characterize the EPR spectral components, the membrane and aqueous environments were described as lipophylic and hydrophilic, respectively. Apparently, a partition coefficient depends on both the concentration of the lipid fractions and the number of lung cells in the aqueous system. For an accurate comparison of the data related to the partition coefficients, the same amount (by weight) of cancer and normal cell suspensions were used. Both cancer and normal cell suspensions were incubated with TEMPO (150 mM total concentration) for about 30 min. The experimental conditions used in this study allow us to compare the partition coefficients of the normal and cancer cells directly.
(§6) The temperature dependence of the equilibrium constant K (partition coefficient in our case) was used to calculate the free energy changes required to transfer TEMPO molecules from the aqueous to the lipid phase of the membranes of the healthy and cancer cells.
(§7) Similarly, the temperature dependence of the rotational correlation times of TEMPO was used to determine the activation energies for rotational motions in the membranes of the healthy and cancer cells.

[2] = system: membranes of human lung normal (healthy) cells; assay: EPR study of TEMPO partitioning into membranes of healthy (normal) human lung cells; format: physicochemical; conditions: for DGK (free energy change to transfer TEMPO from aqueous to lipid phase of the membrane) / DGt (∆Gτ, activation energy of rotational motions of TEMPO in the membrane) / 2Aiso aqueous / 2Aiso membrane: healthy cells; for DGK (free energy change to transfer TEMPO from aqueous to lipid phase of the membrane) / DGt (∆Gτ, activation energy of rotational motions of TEMPO in the membrane): 283–317 K; for 2Aiso aqueous: TEMPO in aqueous phase; for 2Aiso membrane: TEMPO in membrane
Protocol: as §1, §2, §3, §4, §5, §6, §7

[3] = parameters: method as in PMID 38234602; conditions: cited from earlier work
[4] = from cited IC50 values
[5] = read-out: IC50 (cytotoxicity); cited from earlier work
[6] = system: various cell lines related to breast, colon, liver, and ovary cancer; parameters: method as in PMID 9607601; conditions: range over cell lines related to breast, read-out: IC50 as an antiproliferative agent; cited from earlier work
HCT116 cell lines = system: HCT116 cell lines; parameters: method as in PMID 9607601; conditions: cited from earlier work
[7] = cancer cells, pH 6.2, 283–317 K
[8] = cancer cells, pH 7.3, 283–317 K

## CC1(C)CCCC(C)(C)N1[O] [TEMPO, 2,2,6,6-tetramethylpiperidine-1-oxyl]
[1]; cancer cell membranes, acidic transition from pH 7.3 to pH 6.2
  increase of free energy change of TEMPO transfer: ~42%
[1]; cancer cell membranes, room temperature, pH 7.3
  rotational correlation time of TEMPO in membrane: about 490 ps
[1]; cancer cells at pH 7.3, free energy values compared for pH 6.2 and 7.3
  less energy required for TEMPO partitioning: 30%
[1]; [7]
  DGK (free energy change to transfer TEMPO from aqueous to lipid phase of the membrane): 1.7 ± 0.1 kcal/mol
  DGt (∆Gτ, activation energy of rotational motions of TEMPO in the membrane): 2.6 ± 0.3 kcal/mol
[1]; cancer cells, pH 6.2
  2Aiso aqueous: 34.5 Gauss
[1]; [8]
  DGK (free energy change to transfer TEMPO from aqueous to lipid phase of the membrane): 1.2 ± 0.1 kcal/mol
  DGt (∆Gτ, activation energy of rotational motions of TEMPO in the membrane): 2.1 ± 0.2 kcal/mol
[1]; cancer cells, pH 7.3
  2Aiso aqueous: 34.5 Gauss
[1]; cancer cells, pH 7.3, TEMPO in membrane
  2Aiso membrane: 31.5 Gauss
[1]; cancer vs neighboring normal cells, 283–317 K, pH 7.3 and 6.2
  TEMPO partition coefficient, cancer cells compared with healthy cells: significantly higher
[2]; healthy cell membranes, acidic transition from pH 7.3 to pH 6.2
  increase of free energy change of TEMPO transfer: about 19%
[2]; healthy cell membranes, room temperature, pH 7.3
  rotational correlation time of TEMPO in membrane: ~617 ps
[2]; pH 6.2
  DGK (free energy change to transfer TEMPO from aqueous to lipid phase of the membrane): 3.7 ± 0.3 kcal/mol
  DGt (∆Gτ, activation energy of rotational motions of TEMPO in the membrane): 3.8 ± 0.3 kcal/mol
  2Aiso aqueous: 34.4 Gauss
  2Aiso membrane: 31.9 Gauss
[2]; pH 7.3
  DGK (free energy change to transfer TEMPO from aqueous to lipid phase of the membrane): 3.1 ± 0.1 kcal/mol
  DGt (∆Gτ, activation energy of rotational motions of TEMPO in the membrane): 1.9 ± 0.2 kcal/mol
  2Aiso aqueous: 34.5 Gauss
  2Aiso membrane: 32.4 Gauss
[2]; membranes of healthy and cancer cells, pH 6.2 and 7.3
  2Aiso values of TEMPO incorporated into the membranes of the cells (interval): 31.4−32.4 Gauss
[3]
  partitioning into liposomes of cancer cell lipids compared to liposomes of normal cell lipids: significantly enhanced partitioning
[4]
  IC50 of TEMPO relative to TEMPOL (fold lower): about 4 fold
[5]
  IC50: 2.7 mM

## CC1(C)CC(OC(=O)c2ccccc2)CC(C)(C)N1[O] [TEMPO-benzoate]
[3]
  partitioning in liposome studies: significantly enhanced partitioning

## CC1(C)CC(O)CC(C)(C)N1[O] [TEMPOL, 4-hydroxy-TEMPO]
[6]
  IC50: 0.21 to 1.07 mM
[5]
  IC50: 11.4 mM

## COc1cccc2c1C(=O)c1c(O)c3c(c(O)c1C2=O)C[C@@](O)(C(=O)CO)C[C@@H]3O[C@H]1C[C@H](N)[C@H](O)[C@H](C)O1 [doxorubicin]
HCT116 cell lines
  fold decrease of doxorubicin IC50 by TEMPOL pretreatment: ~7 fold
